Test results from patent US20110224197A1, “PYRIMIDINES AND PYRIDINES USEFUL AS INHIBITORS OF PROTEIN KINASES” (Vertex Pharmaceuticals Incorporated, priority 2008, published 2011).

System: E16 rat hippocampal or cortical neurons
Assay: Axonal Branching Assay
Assay type: cell-based
Protocol: Compounds are tested for the ability to enhance axonal branching in E16 rat hippocampal or cortical neurons.
1 mg/ml stock of PDL is diluted into 100 μg/ml in DI water. The glass coverslips are coated for at least 1 hour at 37° C. prior to doing the dissection. PDL is aspirated and the plates are rinsed with PBS and air-dried in hood.
Cortical or hippocampal lobes are combined with 9 mL of Base media (Neurobasal+Pen/Strep) and put on ice. 1 mL of 10× trypsin solution is added and the mixture is swirled gently. The tissue is then digested via incubation in a 37° C. waterbath for 20 minutes. After 20 minutes, 10 μl/ml DNase (100 μL DNase) is added and the mixture is incubated for another 5 minutes.
The cells are spun at 1000 rpm for 1 minute. The enzyme solution is then removed without removing any of the brain fragments sitting on the bottom. […] The cells are counted in a hemacytometer and seeded at 5000-10000 cells/well in a 24 well plate with glass coverslip inserts coated with PDL. […]
Images are captured at 10× and 20× on an upright microscope and axonal branching is determined by quantification of area under threshold fluorescence of neurofilament Alexa 488 per cell. Dendritic branching is determined by quantification of area under threshold fluorescence of MAP2 Alexa 568 per cell. Alternatively, branching can be determined by manual counting of branch points per cell. […]

Cc1nc(-c2ccccc2Cl)nc(Nc2n[nH]c3ncc(F)cc23)c1C [Compound I-37, N-(2-(2-chlorophenyl)-5,6-dimethylpyrhnidin-4-yl)-5-fluoro-1H-pyrazolo[3,4-b]pyridin-3-amine]
axonal and dendritic branching (10 nM, 7 days): increased axonal and dentritic branching
axon growth (concentrations shown to induce β-catenin): axon growth was inhibited
